Measurements taken from ChEMBL document CHEMBL1201862, “PubChem BioAssay data set” (2004).
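Where inhibition never reached the appropriate level, the endpoint shown equals the highest concentration tested. Otherwise, values were interpolated linearly from a five-concentration, 48-hour dose response in 96-well plates. GI50 marks 50% less growth.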 The source made the active and inactive calls. No stated cut-off is given here; in the data, active = GI50 up to about 1.1 µM and inactive = higher. Residues, ends and D or L forms follow the SMILES beside them. *: point of attachment. Boc = CC(C)(C)OC(=O)*; OBn = c1ccc(CO*)cc1

Columns and labels:
Test in all cases: growth of human tumour cells (NCI), 48 h
[1] = tested on: MDA-N
[2] = tested on: TK-10
[3] = tested on: SW-620
[4] = tested on: PC-3
[5] = tested on: SF-268
[6] = tested on: DU-145
[7] = tested on: NCI-H23
[8] = tested on: 786-0
[9] = tested on: SF-295
[10] = tested on: M14
[11] = tested on: HL-60
[12] = tested on: KM12
[13] = tested on: SN12C
[14] = tested on: SNB-75
[15] = tested on: SK-MEL-2
[16] = tested on: UO-31
[17] = tested on: OVCAR-4
[18] = tested on: CCRF-CEM

Measured: GI50

COC(=O)C1CCC(=O)N1CN(C(C)=O)c1cc(OC)ccc1OC (stereo not drawn)
inactive: [1] > 100 µM | [2] > 100 µM | [3] > 100 µM | [4] > 100 µM | [5] > 100 µM | [6] > 100 µM | [7] > 100 µM | [8] > 100 µM | [9] > 100 µM | [10] > 100 µM | [11] > 100 µM | [12] > 100 µM | [13] > 100 µM | [14] > 100 µM | [15] > 100 µM | [16] > 100 µM | [17] > 100 µM

COc1cc2c(c(OC)c1OC)C(=O)[C@H](O)[C@H]2NC(N)=O
inactive: [1] > 100 µM | [2] > 100 µM | [3] > 100 µM | [4] > 100 µM | [5] > 100 µM | [6] > 100 µM | [7] 53.8 µM | [8] > 100 µM | [9] > 100 µM | [10] 47.6 µM | [11] 90.8 µM | [12] > 100 µM | [13] > 100 µM | [14] 23.3 µM | [18] > 100 µM | [16] > 100 µM

CO[C@]12CC(=O)C3(C(C[C@H]4CC5CC[C@H]6C[C@@H](OC(C)=O)CC[C@]6(OC(C)=O)C5C[C@@]43C)C1)C1C[C@H]3[C@@H]4CC[C@H]5C[C@@H](OC(C)=O)CC[C@]5(OC(C)=O)[C@H]4CC[C@]3(C)C12 (stereo partly drawn)
inactive: [1] 98.2 µM | [2] > 100 µM | [3] > 100 µM | [4] 50.8 µM | [5] > 100 µM | [6] 70.3 µM | [7] 83.4 µM | [8] 64.4 µM | [9] 61.5 µM | [10] > 100 µM | [12] 46.8 µM | [13] > 100 µM | [14] > 100 µM | [18] 24.5 µM | [15] > 100 µM | [16] > 100 µM | [17] 17.1 µM

CC1=C(C(N)=O)C(c2ccncc2)C(C#N)C(=O)N1 (stereo not drawn)
inactive: [2] > 100 µM | [3] > 100 µM | [4] > 100 µM | [5] > 100 µM | [6] > 100 µM | [7] > 100 µM | [8] > 100 µM | [9] > 100 µM | [10] > 100 µM | [11] > 100 µM | [12] > 100 µM | [14] > 100 µM | [18] > 100 µM | [15] > 100 µM | [16] > 100 µM | [17] > 100 µM

CC1CC(NN(C)C)C2(C(N)=O)C(N)=NC(=O)C12C#N (stereo not drawn)
inactive: [1] > 100 µM | [2] > 100 µM | [3] > 100 µM | [4] > 100 µM | [5] > 100 µM | [6] > 100 µM | [7] > 100 µM | [8] > 100 µM | [9] > 100 µM | [10] > 100 µM | [11] > 10 µM | [12] > 100 µM | [13] > 100 µM | [14] 10 µM | [18] > 100 µM | [15] > 100 µM | [16] > 100 µM

CCOC(=O)c1sc2c(c1OC(=O)c1cc(OC)c(OC)c(OC)c1)c(=O)n(-c1ccccc1)c(=S)n2-c1ccccc1
inactive: [1] > 100 µM | [2] > 100 µM | [3] > 100 µM | [4] 63.5 µM | [5] > 100 µM | [6] > 100 µM | [7] 53.1 µM | [8] 84.1 µM | [9] > 100 µM | [10] 40.5 µM | [11] 62.8 µM | [12] > 100 µM | [13] 90.2 µM | [14] > 100 µM | [18] 17.5 µM | [17] 70.8 µM

C=C(Br)C[N+]12CN3CN(CN(C3)C1)C2
inactive: [1] > 100 µM | [3] > 100 µM | [4] > 100 µM | [5] > 100 µM | [6] > 100 µM | [7] > 100 µM | [8] > 100 µM | [9] > 100 µM | [10] > 100 µM | [11] > 100 µM | [12] > 100 µM | [13] > 100 µM | [14] > 100 µM | [18] > 100 µM | [15] > 100 µM | [16] > 100 µM | [17] > 100 µM

COc1ccc2c(c1)nc1n2C(c2c(F)cccc2Cl)SC1 (stereo not drawn)
inactive: [1] 1.35 µM | [2] > 25.9 µM | [5] 3.66 µM | [6] 1.49 µM | [7] 3.59 µM | [8] 5.68 µM | [9] 2.74 µM | [10] 3.9 µM | [11] 1.26 µM | [12] 2.76 µM | [13] > 22.6 µM | [14] 1.68 µM | [18] 3.1 µM | [16] > 20.2 µM

Cc1ccc(-c2nnc(CCCCCCCCc3nnc(-c4ccc(C)cc4O)n3N)n2N)c(O)c1
inactive: [1] > 100 µM | [2] > 100 µM | [3] > 100 µM | [5] > 100 µM | [6] > 100 µM | [7] > 100 µM | [8] 85.1 µM | [9] 77.1 µM | [10] > 100 µM | [11] > 10 µM | [12] > 100 µM | [13] > 100 µM | [14] 33.9 µM | [18] > 10 µM | [15] > 100 µM | [16] > 100 µM | [17] > 100 µM

CCOC(=O)c1c(-c2cccc3ccccc23)c(C#N)c(=S)n(C2OC(COC(C)=O)C(OC(C)=O)C(OC(C)=O)C2OC(C)=O)c1C (stereo not drawn)
inactive: [1] > 100 µM | [2] > 100 µM | [4] 15.8 µM | [5] > 100 µM | [6] > 100 µM | [7] > 100 µM | [8] > 100 µM | [9] > 100 µM | [10] > 100 µM | [11] > 100 µM | [12] > 100 µM | [13] > 100 µM | [14] 13.7 µM | [18] > 100 µM | [15] 64.1 µM | [16] 1.32 µM | [17] > 100 µM

Oc1ccccc1-c1cnnc(-c2ccccc2O)c1
inactive: [2] 28.7 µM | [3] 37.7 µM | [5] 38.2 µM | [8] 17.9 µM | [10] 22.2 µM | [11] 19.8 µM | [13] 30.3 µM | [14] 20.4 µM | [18] 13.4 µM | [15] 20.5 µM | [16] 19.7 µM | [17] 29.9 µM

CC(C)C(NC(=O)C(Cc1ccccc1)NC(=O)OC(C)(C)C)C(=O)NCC(=O)OCc1ccccc1 (stereo not drawn) (Boc-Phe-Val-Gly-OBn; configuration not given here)
inactive: [1] 19.4 µM | [2] 13 µM | [3] 14.3 µM | [4] 15.7 µM | [5] 14.7 µM | [6] 14.3 µM | [7] 16.8 µM | [8] 17.9 µM | [9] 18.6 µM | [10] 20.9 µM | [11] 13.4 µM | [13] 18 µM | [14] 20.5 µM | [18] 20 µM | [15] 17.8 µM | [16] 21.7 µM | [17] 3.87 µM
